Laboratory results published in the NIST ThermoML archive (doi:10.1021/je060170c).
Several values for one entry are separate records, joined by “and”; a condition that tells them apart may be missing. Equal entries are not always repeated.

Tests used:
[1] = xn = mol fraction of the nth substance listed; conditions: 101 kPa, Liquid; for viscosity: Anton Paar Stabinger viscometer
[2] = 101 kPa, Liquid; for viscosity: Anton Paar Stabinger viscometer

Cc1ccc(C)cc1 [1,4-dimethylbenzene] + COc1ccccc1
[1], x2 = 0
Conditions	mass density [kg/m3]	speed of sound [m/s]	viscosity [mPa·s]
288.15 K	865.253	1352	0.701
293.15 K	860.917	1331.1	0.65
298.15 K	856.617	1310	0.611
303.15 K	852.255	1289.7	0.576

COc1ccccc1 [anisole]
[2]
Conditions	mass density	speed of sound	viscosity [mPa·s]
288.15 K	998.441 kg/m3 and 998.44 kg/m3	1449.1 m/s	1.188
293.15 K	993.649 kg/m3 and 993.653 kg/m3 and 993.651 kg/m3	1428.5 m/s	1.084
298.15 K	989.106 kg/m3 [middle of 4 runs]	1408 m/s	1.017
303.15 K	984.372 kg/m3 and 984.37 kg/m3 and 984.374 kg/m3	1387.7 m/s and 1386.7 m/s	0.931

COc1ccccc1 [anisole] + Cc1cc(C)cc(C)c1
[1], x1 = 1
Conditions	mass density [kg/m3]	speed of sound [m/s]	viscosity [mPa·s]
288.15 K	998.44	1449.1	1.188
293.15 K	993.651	1428.5	1.084
298.15 K	989.106	1408	1.017
303.15 K	984.37	1386.7	0.931

c1ccccc1 [benzene]
[2]
Conditions	mass density [kg/m3]	speed of sound [m/s]	viscosity [mPa·s]
288.15 K	884.184	1347.2	0.709
293.15 K	877.43	1323.3	0.648
298.15 K	873.58	1299.7	0.604
303.15 K	868.174	1276.4	0.571

c1ccccc1 [benzene] + COc1ccccc1
[1], x2 = 0
Conditions	mass density [kg/m3]	speed of sound [m/s]	viscosity [mPa·s]
288.15 K	884.184	1347.2	0.709
293.15 K	877.43	1323.3	0.648
298.15 K	873.58	1299.7	0.604
303.15 K	868.174	1276.4	0.571

Cc1ccccc1 [toluene]
[2]
Conditions	mass density [kg/m3]	speed of sound [m/s]	viscosity [mPa·s]
288.15 K	871.412	1350	0.63
293.15 K	866.874	1327.2	0.588
298.15 K	862.2	1305.4	0.556
303.15 K	857.464	1283.8	0.523

Cc1ccccc1 [toluene] + COc1ccccc1
[1], x2 = 0
Conditions	mass density [kg/m3]	speed of sound [m/s]	viscosity [mPa·s]
288.15 K	871.412	1350	0.63
293.15 K	866.874	1327.2	0.588
298.15 K	862.2	1305.4	0.556
303.15 K	857.464	1283.8	0.523
